According to PMC12064818, “A general assay platform to study protein pharmacology using ligand-dependent structural dynamics” (Nature Communications, 2025):

Experiments:
[1] = target: T1, NLuc (Oplophorus gracilirostris, UniProt Q9GV45, A31E/A60N/A81I/F95D/I117V/K70R/L54V/L99Q/M102K/N193R/P142E/Q151K/Q38R/Q45L/V71I/Y165I); assay type: biochemical; conditions: - ATP
T1 construct: His tag (inferred from IMAC purification); made in house; host or cells: E. coli
Experimental: Compounds and controls were added to plates as described in Supplementary Data 8. Nano-Glo luciferase assay reagent (Promega) was prepared fresh according to manufacturer’s protocol, filtered and added at 3 μL per well across assay plates with a BioRaptr2 dispenser. Enzyme was incubated with Nano-Glo reagent for 10 min and NLuc luminescence was read on a ViewLux CCD imager (PerkinElmer), with 1 s exposure with medium gain and 2x binning. Data were normalized to average no enzyme control as 100% enzyme inhibition and average DMSO neutral control. See Supplementary Table 4 for additional details.
Supplementary Table 4. […]
Sequence Param eter Value Description […]
5 Detector ViewLux Read plate lum inescence (Exposure = 1- 10 sec; Gain = Medium -high; Speed = Slow;
Dispensing solution was diluted in 1X PBS, pH 7.4.
NanoLuc luciferase (NLuc) enzym atic lum inescence assay […]
Nano-Glo luciferase assay reagent (Prom ega, Cat # N1120) prepared according to m anufacturer’s recom m endations,
4 com ponents stored at -30 °C until use, and reagent prepared fresh for each assay.
syringe filter prior to dispense.

[2] = target: P. pyralis FLuc (Photinus pyralis, UniProt P08659); experiment: FLuc enzymatic luminescence assay, P. pyralis FLuc; assay type: biochemical; conditions: FLuc enzymatic assay, Clade S follow-up; for IC50: read-out: IC50 or SDR50 (mM) FLuc E
P. pyralis FLuc, sequence (P08659 whole entry): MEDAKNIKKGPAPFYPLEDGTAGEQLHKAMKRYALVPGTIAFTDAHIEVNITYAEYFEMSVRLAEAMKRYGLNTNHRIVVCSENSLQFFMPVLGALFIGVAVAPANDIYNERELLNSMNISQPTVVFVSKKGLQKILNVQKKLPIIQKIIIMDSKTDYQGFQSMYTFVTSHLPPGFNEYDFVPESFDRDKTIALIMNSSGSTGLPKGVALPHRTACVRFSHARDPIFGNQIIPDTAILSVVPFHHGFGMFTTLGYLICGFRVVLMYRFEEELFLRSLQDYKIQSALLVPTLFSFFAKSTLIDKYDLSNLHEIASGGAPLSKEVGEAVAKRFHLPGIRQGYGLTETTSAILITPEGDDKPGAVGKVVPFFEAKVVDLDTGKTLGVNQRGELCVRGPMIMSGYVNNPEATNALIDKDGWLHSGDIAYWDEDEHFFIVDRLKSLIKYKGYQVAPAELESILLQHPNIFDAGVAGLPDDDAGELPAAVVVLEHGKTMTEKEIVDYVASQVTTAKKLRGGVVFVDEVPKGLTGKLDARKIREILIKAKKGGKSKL
In short: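 Runs with and without 10 µM ATP: compounds were pre-incubated with FLuc (1–10 nM, PBS pH 7.4) at ambient temperature, light-protected, for 30–60 min. Luminescence was imaged 5 min after adding 10 µM D-luciferin (final). Inhibition was scaled between DMSO neutral and no-enzyme controls.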

[3] = target: FLuc-C-NLuc (firefly luciferase) (Photinus pyralis, UniProt P08659, form not given/L550V); experiment: SDR assay, FLuc-C-NLuc; conditions: - ATP
FLuc-C-NLuc (firefly luciferase), sequence (P08659 2-550 L550V, form open): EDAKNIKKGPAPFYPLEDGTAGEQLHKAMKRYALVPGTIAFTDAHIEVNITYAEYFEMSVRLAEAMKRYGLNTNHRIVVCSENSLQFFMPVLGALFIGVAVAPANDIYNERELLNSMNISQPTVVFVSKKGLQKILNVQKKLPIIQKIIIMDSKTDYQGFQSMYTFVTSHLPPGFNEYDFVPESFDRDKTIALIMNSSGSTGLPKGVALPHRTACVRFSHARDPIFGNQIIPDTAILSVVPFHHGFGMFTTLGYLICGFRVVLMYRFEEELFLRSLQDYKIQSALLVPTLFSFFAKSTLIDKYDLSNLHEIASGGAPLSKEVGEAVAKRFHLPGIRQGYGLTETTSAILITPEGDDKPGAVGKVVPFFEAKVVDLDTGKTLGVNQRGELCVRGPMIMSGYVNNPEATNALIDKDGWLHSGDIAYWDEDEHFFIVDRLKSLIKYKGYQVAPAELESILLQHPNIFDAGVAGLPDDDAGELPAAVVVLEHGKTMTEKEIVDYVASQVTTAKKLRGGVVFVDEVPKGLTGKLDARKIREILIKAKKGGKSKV

[4] = target: FLuc-C-HiBiT (firefly luciferase) (Photinus pyralis, UniProt P08659, form not given/L550V); experiment: SDR assay, FLuc-C-HiBiT; conditions: SDR max. response, clade S
FLuc-C-HiBiT (firefly luciferase), sequence (P08659 2-550 L550V, form open): as above

T1 sequence (Q9GV45 other isoform, or with tags, fused parts or gaps with the stated changes): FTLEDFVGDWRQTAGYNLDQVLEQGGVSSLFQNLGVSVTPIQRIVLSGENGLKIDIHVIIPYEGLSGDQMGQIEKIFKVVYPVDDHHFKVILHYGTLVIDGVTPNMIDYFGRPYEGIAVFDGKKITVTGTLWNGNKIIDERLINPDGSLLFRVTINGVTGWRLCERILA

| SMILES | Efficacy (%) NLuc (- ATP) [1] [%] | Efficacy (%) FLuc E [2] [%] | pIC50 or pSDR50 FLuc E [2] | IC50 [2] [mM] | Efficacy (%) FLuc-C-NLuc SDR (-ATP) [3] [%] | % Activity (max response, + ATP) [4] [%] | % Activity (max response, - ATP) [4] [%] |
| --- | --- | --- | --- | --- | --- | --- | --- |
| Cc1cccc(CNC(=O)C2CCN(C(=O)c3ncn4c3COC(c3ccc(F)cc3)C4)CC2)c1 (stereo not drawn) [NCGC00449836-01] | -9.94 | -28.36 | 4.91 | 0.0124 | 0.00 | 48.27 | 0.00 |
| O=C(NCc1cccc(F)c1)C1CCN(C(=O)c2ncn3c2COC(c2ccc(F)cc2)C3)CC1 (stereo not drawn) [NCGC00449837-01] | 0.00 | -43.87 | 5.01 | 0.00988 | 0.00 | 75.17 | 0.00 |
| O=C(NC1CC1)C1CCN(C(=O)c2ncn3c2COC(c2ccc(Cl)cc2)C3)CC1 (stereo not drawn) [NCGC00449842-01] | 0.00 | -28.68 |  |  | 0.00 | 18.50 | 0.00 |
| O=C(NC1CCCC1)C1CCN(C(=O)c2ncn3c2COC(c2ccc(Cl)cc2)C3)CC1 (stereo not drawn) [NCGC00449843-01] | 0.00 | -13.86 |  |  | 0.00 | 0.00 | 0.00 |
| O=C(NC1CCCCC1)C1CCN(C(=O)c2ncn3c2COC(c2ccc(Cl)cc2)C3)CC1 (stereo not drawn) [NCGC00449844-01] | 0.00 | -39.79 | 4.96 | 0.0111 | 0.00 | 33.25 | 0.00 |
| CC1CCC(NC(=O)C2CCN(C(=O)c3ncn4c3COC(c3ccc(Cl)cc3)C4)CC2)CC1 (stereo not drawn) [NCGC00449845-01] | 0.00 | 0.00 |  |  | 0.00 | 0.00 | 0.00 |
| O=C(NC1CCCCCC1)C1CCN(C(=O)c2ncn3c2COC(c2ccc(Cl)cc2)C3)CC1 (stereo not drawn) [NCGC00449846-01] | 0.00 | -16.55 |  |  | 0.00 | 13.50 | 0.00 |
| O=C(NC1CCCCCCC1)C1CCN(C(=O)c2ncn3c2COC(c2ccc(Cl)cc2)C3)CC1 (stereo not drawn) [NCGC00449847-01] | 0.00 | -17.30 |  |  | 0.00 | 0.00 | 0.00 |
| O=C(NCCC1=CCCCC1)C1CCN(C(=O)c2ncn3c2COC(c2ccc(Cl)cc2)C3)CC1 (stereo not drawn) [NCGC00449848-01] | 0.00 | -32.57 | 4.91 | 0.0124 | 0.00 | 23.50 | -6.50 |
| O=C(NCc1ccccc1)C1CCN(C(=O)c2ncn3c2COC(c2ccc(Cl)cc2)C3)CC1 (stereo not drawn) [NCGC00449849-01] | 0.00 | -35.02 | 4.91 | 0.0124 | 0.00 | 28.50 | 0.00 |
| Cc1ccc(CNC(=O)C2CCN(C(=O)c3ncn4c3COC(c3ccc(Cl)cc3)C4)CC2)cc1 (stereo not drawn) [NCGC00449850-01] | 0.00 | -21.67 |  |  | 0.00 | 22.50 | 0.00 |
| O=C(NCc1ccccc1F)C1CCN(C(=O)c2ncn3c2COC(c2ccc(Cl)cc2)C3)CC1 (stereo not drawn) [NCGC00449851-01] | 0.00 | -40.26 | 4.91 | 0.0124 | 0.00 | 18.50 | 0.00 |
| O=C(NCc1ccc(F)cc1)C1CCN(C(=O)c2ncn3c2COC(c2ccc(Cl)cc2)C3)CC1 (stereo not drawn) [NCGC00449852-01] | 0.00 | -25.63 | 4.86 | 0.0139 | 0.00 | 32.50 | 0.00 |
| CC(NC(=O)C1CCN(C(=O)c2ncn3c2COC(c2ccc(Cl)cc2)C3)CC1)c1ccccc1 (stereo not drawn) [NCGC00449853-01] | 0.00 | -16.52 |  |  | 0.00 | 0.00 | 0.00 |
| O=C(NCCc1ccccc1)C1CCN(C(=O)c2ncn3c2COC(c2ccc(Cl)cc2)C3)CC1 (stereo not drawn) [NCGC00449854-01] | 0.00 | -25.47 |  |  | 0.00 | 0.00 | 0.00 |
| O=C(NCC1CCCCC1)C1CCN(C(=O)c2ncn3c2COC(c2ccc(Cl)cc2)C3)CC1 (stereo not drawn) [NCGC00449855-01] | 0.00 | -13.13 |  |  | 0.00 | 16.00 | 0.00 |
| COc1ccc(C2Cn3cnc(C(=O)N4CCC(C(=O)NC(C)C)CC4)c3CO2)cc1 (stereo not drawn) [NCGC00449857-01] | 0.00 | -19.61 |  |  | 0.00 | 13.32 | 0.00 |
| COc1ccc(C2Cn3cnc(C(=O)N4CCC(C(=O)NCC(C)C)CC4)c3CO2)cc1 (stereo not drawn) [NCGC00449858-01] | 0.00 | -13.26 |  |  | 0.00 | 14.32 | 0.00 |
| COc1ccc(C2Cn3cnc(C(=O)N4CCC(C(=O)NC5CCCC5)CC4)c3CO2)cc1 (stereo not drawn) [NCGC00449859-01] | 0.00 | 0.00 |  |  | 0.00 | 0.00 | 0.00 |
| COc1ccc(C2Cn3cnc(C(=O)N4CCC(C(=O)NC5CCCCC5)CC4)c3CO2)cc1 (stereo not drawn) [NCGC00449860-01] | 0.00 | 0.00 |  |  | 0.00 | 0.00 | 0.00 |
| COc1ccc(C2Cn3cnc(C(=O)N4CCC(C(=O)NC5CCC(C)CC5)CC4)c3CO2)cc1 (stereo not drawn) [NCGC00449861-01] | 0.00 | 0.00 |  |  | 0.00 | 14.50 | 0.00 |
| COc1ccc(C2Cn3cnc(C(=O)N4CCC(C(=O)NC5CCCCCC5)CC4)c3CO2)cc1 (stereo not drawn) [NCGC00449862-01] | -12.50 | 0.00 |  |  | 0.00 | 0.00 | 0.00 |
| CCCCNC(=O)C1CCN(C(=O)c2ncn3c2COC(c2ccc(OC)cc2)C3)CC1 (stereo not drawn) [NCGC00449864-01] | 0.00 | -10.96 |  |  | 0.00 | 0.00 | 0.00 |
| COc1ccc(C2Cn3cnc(C(=O)N4CCC(C(=O)NCc5ccccc5)CC4)c3CO2)cc1 (stereo not drawn) [NCGC00449865-01] | 0.00 | 0.00 |  |  | 0.00 | 0.00 | 0.00 |
| COc1ccc(C2Cn3cnc(C(=O)N4CCC(C(=O)NCc5ccc(C)cc5)CC4)c3CO2)cc1 (stereo not drawn) [NCGC00449866-01] | -22.39 | 0.00 |  |  | 0.00 | 0.00 | -10.00 |
| COc1ccc(C2Cn3cnc(C(=O)N4CCC(C(=O)NCCc5ccccc5)CC4)c3CO2)cc1 (stereo not drawn) [NCGC00449871-01] | 0.00 | 0.00 |  |  | 0.00 | 0.00 | 0.00 |
